Source: patent publication US20020001652A1, “Process for making granulated N-[N- (3, 3-dimethylbutyl) -L-alpha -aspartyl] -L- phenylalanine 1-methyl ester” (priority 2000, published 2002)

Key:
[1] = bulk density (loose), cup of known volume; type: physicochemical; details: Example 2; granulation through 20 mesh, retained on 60 mesh, versus initial powder
Method: In particular, bulk density (loose) was measured using a cup of known volume. The cup was filled with sample, excess was removed and the sample was weighed.

[2] = HPLC analysis of neotame degradation during granulation; type: physicochemical; details: roller compaction, cone mill, sieving
From the text: A lab scale TF-Mini roller compactor (Vector Corp., Marion, Iowa) was used in conjunction with a cone mill and a Ro-Tap testing sieve shaker (model B, CE Tyler Combustion Engineering, Inc., Mentor, Ohio) for testing and producing granulated neotame. The neotame powder flowed well into the feed hopper. […] The energy consumption of the rolls and feed screw were within the desired limits. The flakes were broken down into granular particles using a cone mill. The granulation was sieved to obtain a particle size that passed through 20 mesh and was retained on 60 mesh.

## COC(=O)[C@H](Cc1ccccc1)NC(=O)[C@H](CC(=O)O)NCCC(C)(C)C [neotame, N-[N-(3,3-dimethylbutyl)-L-α-aspartyl]-L-phenylalanine 1-methyl ester]
[1]
  bulk density: 0.4 g/cc
[2]
  degradation of neotame during granulation process: no degradation
